# Measurements from patent US20190175534A1, “PHARMACEUTICAL COMPOSITIONS COMPRISING DGLA AND USE OF SAME” (DS Biopharma Limited, priority 2016, published 2019).
# Legend:
# [1] = test system: healthy male and female subjects; assay: Phase 1 study safety and tolerability (single and multiple dose); conditions: for Tolerability: healthy volunteers
# Protocol: Screening procedures were conducted for both parts one and two before the start of the study on Day −1 (Baseline) by evaluating the safety assessments.
# Subjects were monitored throughout their confinement at the Phase 1 unit for adverse reactions to the study drug and/or procedures.
# Safety analyses were performed on the safety population tabulated by treatment arm, cohort, and visit. All safety data were characterized by descriptive statistical tools. […] Evaluation of safety assessments was performed in a descriptive manner. Continuous variables were characterized by their mean, standard deviation (SD), median, minimum and maximum values; discrete variables were characterized by their absolute (frequency) and relative (percentage) distribution.
# [2] = set-up: species or system human; conditions: in vivo
# Protocol: A single-center, double-blind, randomized, placebo-controlled, two part Phase one study was performed in healthy male and female subjects aged 18 to 45 years inclusive. The primary objective of this study was to assess the safety and plasma pharmacokinetics (PK) of orally administered single doses and orally administered multiple doses of DS107G capsules (once daily for 28 days) in healthy subjects.
# Subjects were randomly assigned in a 3:1 ratio of DG107G to placebo by block randomization. Single dose part one of the study comprised three cohorts of eight subjects each, with the addition of Cohort four based on evaluation of the safety data of Cohort three by the Safety Monitoring Committee (SMC). A single oral dose of DS107G or matching placebo was administered to fasted subjects in Cohorts one to three (500, 1000, and 2000 mg, respectively) in parallel; subjects in Cohort four were administered a dose of 4000 mg following completion of Cohort three. Subjects in Cohort two received 1000 mg or matching placebo in the fed state at ≥14 days after the first dose.
# Safety assessments were monitored throughout the study.
# In Part one of the study, subjects in Cohorts one to three were administered a single dose of study drug (either 500-, 1000-, or 2000-mg as 500-mg DS107G capsules or matching placebo capsules) in parallel on study Day 1 after at least an 8-hour fast, according to Table 20. Cohort 4 was initiated following the review of safety data from Cohort 3 by the SMC.
# [3] = Phase 1 multiple-dose skin blister fluid concentrations of free and total DGLA; format: in vivo, human
# Text: The PK of DGLA in human skin following multiple doses of DS107G capsule given once daily for 28 days to healthy subjects.
# [4] = test system: patients with moderate to severe atopic dermatitis; assay: Phase II study of oral DS107G: safety; format: in vivo, human; conditions: oral 2 g once daily 8 weeks
# Text: Subjects visited the clinic on 6 occasions: at screening, baseline, week 2, week 4, week 8 (end of treatment/early termination) and week 10 (follow-up). All subjects exited the study at the week 10 visit. The primary efficacy variable was the proportion of patients achieving an IGA of 0 (clear) or 1 (almost clear), and a decrease of at least 2 points in IGA at week 8. Secondary efficacy variables included: IGA at other visits, pruritus (obtained from the SCORAD visual analog scale), EASI, BSA, POEM, DLQI, SCORAD and TEWL (for selected sites only). Safety was assessed through adverse events, physical examination, vital signs and safety laboratory tests (including pregnancy tests for women of childbearing potential), Pharmacokinetic samples were obtained at Baseline (Day 0), week 4 and week 8 visits in order to measure total and free DGLA plasma trough levels. Separate plasma samples were retained for later analysis of total fatty acid profile and interleukin profile.
# Laboratory tests were performed at screening, Day 0, Week 4 and Week 8. If Week 8 results indicated a clinically significant change from baseline, laboratory tests were also performed at Week 10. […]
# Efficacy was evaluated on the basis of the ITT population and analyses were performed based on the randomized treatment and not on the treatment received. […]
compound,measurement,setting,value
"CCCCC/C=C\C/C=C\C/C=C\CCCCCCC(=O)O [DGLA, Dihomo gamma linolenic acid]",Tolerability,[1]; 2000- or 4000-mg once daily for 28 consecutive days,tolerated well
same,Deaths,[1]; multi-dose study,no deaths
same,Severe TEAEs,[1]; multiple dose,no severe TEAEs
same,Total number of TEAEs among active-treated subjects,[1]; multiple dose,52
same,Proportion of subjects reporting diarrhea,"[1]; multiple dose, 2000-mg group (3/6)",50%
same,Proportion of subjects reporting diarrhea,"[1]; multiple dose, 4000-mg group (4/6)",66.7%
same,Subjects reporting nausea,"[1]; multiple dose, 4000-mg treatment group (10 events among 4/6)",66.7%
same,Incidence of TEAEs among active-treated subjects,"[1]; multiple dose, 11/12 subjects",91.73%
same,Tolerability,"[1]; single dose 500, 1000, 2000 or 4000 mg",well tolerated
same,"Incidence of diarrhea (loose stool), active-treated subjects","[1]; single dose, 5/24 subjects",20.8%
same,"Linearity of elimination half-life or clearance, free or total DGLA",[2]; human,no evidence of nonlinear pharmacokinetics
same,Mean baseline-corrected Cmax and AUC0-24 for free and total DGLA versus dose,[2],increased in a linear manner
same,"Mean total DGLA concentration in skin blister fluid, Day 28 over Day 1",[3]; 2000 mg daily,about 2.5 fold
same,"Mean total DGLA concentration in skin blister fluid, Day 28 over Day 1",[3]; 4000 mg daily,~3 fold
same,Increase of mean total DGLA concentrations in skin blister fluid with a doubling in dose,"[3]; Days 1, 8, 14 and 28",about 1.4 fold
same,Mean free DGLA concentrations in skin blister fluid with a doubling in dose,"[3]; Days 1, 8, 14 and 28, 2000 vs 4000 mg daily",approximately doubled
same,"Mean free DGLA concentration in skin blister fluid, Day 28 over Day 1",[3]; both 2000 and 4000 mg daily,about 3 fold
same,Mean concentrations of free DGLA in plasma versus skin blister fluid,"[3]; same dose, Day 8 and Day 14 (but not Day 28)",somewhat similar
same,Mean concentrations of total DGLA in plasma versus skin blister fluid,"[3]; same dose, after Day 1",much higher in plasma than in skin blister fluid
same,Drug related Serious Adverse Events,[4],no drug related Serious Adverse Events
same,Tolerability,[4],very well tolerated
